Measured values reported in US6620911B1, “Anti-cryptococcal peptides” (Arizona Board of Regents, acting for and on behalf of …, priority 1998, dated 2003).
Converted amounts (≈) assume the structure as drawn. Read-outs that look alike come from different tables or passages of the source.

How the values were obtained:
[1] = system: Rhizopus oligosporus; experiment: Broth macrodilution susceptibility testing of filamentous fungi; assay type: cell-based; details: ATCC 22959
Protocol: (§1) Broth macrodilution susceptibility testing of Aspergillus fumigatus and Rhizopus oligosporus was performed according to a proposed standardized procedure (Espinel-Ingroff et al., Multicenter evaluation of a proposed standardized procedure for antifungal susceptibility testing of filamentous fungi, J Clin Microbiol 1997, 35: 139-43) with slight modification. To induce conidium and sporangiospore formation, A. fumigatus and R. oligosporus were grown on PDA slants at 35° C. for 6 days. Fungal slants were covered with 1 ml of sterile 0.85% NaCl, and suspensions made by gently probing the colonies with the tip of a sterile pasteur pipette. The resulting mixture of hyphal fragments and conidia or sporangiospores was withdrawn, transferred to a sterile clear microfuge tube, and heavy particles were allowed to settle for 10 min. […] Susceptibility to the synthetic peptides was then determined by broth macrodilution assays as described above for the yeast cultures. MICs for the filamentous fungi were read after 24 h.
(§2) Minimum fungicidal concentrations (MFCs) were determined by subculturing 0.1 ml from each tube with no visible growth in the MIC broth macrodilution series onto drug-free SDA plates. […]

[2] = system: Aspergillus fumigatus; experiment: as above; assay type: cell-based; details: ATCC 96918
Protocol: as §1, §2

[3] = cited from earlier work
[4] = system: Cryptococcus neoformans; experiment: Broth macrodilution assay (MIC, MFC), ATCC strains; assay type: cell-based
Protocol: (§3) Dolastatin 10 and modifications were screened against yeasts by the broth macrodilution assay according to the NCCLS (National Committee for Clinical Laboratory Standards, Reference Method for Broth Dilution Antifungal Susceptibility Testing of Yeasts: Approved Standard M27-A, NCCLS, Wayne, Pa., 1997). Yeasts were suspended and diluted as recommended to yield final inocula ranging from 0.5-2.5×10^3 colony forming units (CFU)/ml. Tests were performed in sterile 12×75 mm plastic tubes containing two-fold dilutions of the peptides in 0.165 M morpholinepropanesulfonic acid (MOPS)-buffered RPMI 1640 medium (pH 7.0). One tube was left drug-free for a turbidity control. Tubes were incubated without agitation at 35° C. (25° C. for C. albidus and C. laurentii). MICs were determined after 72 h for Cryptococcus, and after
(§4) 48 h for other yeast genera. The MIC was defined as the lowest concentration of compound that inhibited all visible growth of the test organism.
(§5) Minimum fungicidal concentrations (MFCs) were determined by subculturing 0.1 ml from each tube with no visible growth in the MIC broth macrodilution series onto drug-free SDA plates. The plates were incubated at 35° C. for 48 h for Cryptococcus (25° C. for C. alhidus and C. laurentii), and 35° C. for 24 h for all other yeast and filamentous fungi.

[5] = human plasma, 37° C.; cited from earlier work
[6] = dog plasma, 37° C.; cited from earlier work
[7] = system: Candida glabrata; experiment: Disk diffusion susceptibility testing; assay type: cell-based; details: ATCC 90030
Protocol: (§6) Antimicrobial activity was assayed by disk susceptibility tests according to the NCCLS (National Committee for Clinical Laboratory Standards, Performance Standards for Antimicrobial Disk Susceptibility Tests-Sixth Edition: Approved standard M2-A6, NCCLS, Wayne, Pa., 1997). Inocula were adjusted to a density of 0.10 at 625 nm in SDA broth, and spread on SDA plates. Excess moisture was allowed to absorb for 10 min before applying dried disks containing two-fold dilutions of the drugs. Test plates were incubated at 35° C. (25° C. for C. albidus and C. laurentii), and zones of inhibition recorded after 48 h. The minimum inhibitory concentration (MIC) was defined as the lowest concentration of drug resulting in a clear zone of growth inhibition. Disk susceptibility testing of Staphylococcus aureus, Enterococcus faecalis, Escherichia coli and Neisseria gonorrhoeae was also performed.

[8] = system: Cryptococcus laurentii; experiment: Disk diffusion susceptibility testing; assay type: cell-based; details: ATCC 66036
Protocol: as §6

[9] = system: Candida albicans; experiment: Disk diffusion susceptibility testing; assay type: cell-based; details: ATCC 90028
Protocol: as §6

[10] = system: Cryptococcus neoformans; experiment: Disk diffusion susceptibility testing; assay type: cell-based; details: ATCC 90112
Protocol: as §6

[11] = system: Cryptococcus albidus; experiment: Disk diffusion susceptibility testing; assay type: cell-based; details: ATCC 66030
Protocol: as §6

[12] = system: Cryptococcus neoformans #90112; experiment: Effect of host factors (pH, human serum) on broth macrodilution MICs and MFCs; assay type: cell-based
Protocol: as §3, §4, §5
Broth macrodilution assays were performed with RPMI prepared at pH 5, pH 6 and pH 7, and in RPMI, with and without 50% normal human serum (Lampire Biological Labs). Cryptococcus neoformans #90112 was used in each case.

[13] = mouse plasma, 37° C.; cited from earlier work
[14] = system: Candida parapsilosis; experiment: Broth macrodilution assay; assay type: cell-based; details: ATCC 22019
Protocol: as §3, §4, §5

[15] = system: Candida lusitaniae; experiment: Broth macrodilution assay; assay type: cell-based; details: ATCC 42720
Protocol: as §3, §4, §5

[16] = system: Candida glabrata; experiment: Broth macrodilution assay; assay type: cell-based; details: ATCC 90030
Protocol: as §3, §4, §5

[17] = system: Cryptococcus uniguttulatus; experiment: Broth macrodilution assay; assay type: cell-based
Protocol: as §3, §4, §5

[18] = system: Cryptococcus laurentii; experiment: Broth macrodilution assay; assay type: cell-based
Protocol: as §3, §4, §5

[19] = system: Rhodotorula mucilaginosa; experiment: Broth macrodilution assay; assay type: cell-based; details: ATCC 9449
Protocol: as §3, §4, §5

[20] = system: Candida albicans; experiment: Broth macrodilution assay; assay type: cell-based; details: ATCC 90028
Protocol: as §3, §4, §5

[21] = system: Cryptococcus ater; experiment: Broth macrodilution assay; assay type: cell-based; details: ATCC 14247
Protocol: as §3, §4, §5

[22] = system: Cryptococcus albidus; experiment: Broth macrodilution assay; assay type: cell-based
Protocol: as §3, §4, §5

[23] = system: fluconazole-resistant Cryptococcus neoformans; assay type: cell-based
Excerpt: (§7) Clinical isolates of C. neoformans were obtained from patient cerebrospinal fluid, blood, bone marrow, sputum, bronchial lavage and wound infections at the University of Virginia Medical Center, Strains clinically resistant to fluconazole (See: Jessup, C. J. et al, 1997; Poster #F-88, 37th ICAAC, Toronto, Canada) were provided by the Center for Medical Mycology, Case Western Reserve University. Yeast strains (except for C. albidus and C. laurentii) were maintained by single colony transfer on Sabouraud Dextrose Agar (SDA), pH 5.6 at 35° C. Cryptococcus albidus, C. laurentii and C. uniguttulatus (#66033) were maintained on SDA, pH 6.6 at 25° C., C. uniguttulatus (#34143) and C. ater on Yeast Morphology (YM) agar at 25° C. and filamentous fungi were maintained on Potato Dextrose Agar (PDA) slants at 35° C.
as §3, §4, §5

[24] = mice, intravenous injection; cited from earlier work
[25] = system: C. neoformans (#90112); experiment: Killing kinetics; assay type: cell-based, Cryptococcus neoformans; details: 1x, 4x, 8x MIC, FIG. 2
Protocol: Overnight cultures of C. neoformans (#90112) in Ph 7.0 MOPS-buffered RPMI 1640 medium were inoculated into the same medium containing multiples of the broth macrodilution MIC of the antifungal peptides, or an equivalent volume of DMSO. Cultures were shaken at 35° C., and aliquots aseptically removed at various times for dilution plating.

[26] = system: clinical isolates of C. neoformans; experiment: Broth macrodilution (MIC, MFC), 19 clinical isolates; assay type: cell-based, Cryptococcus neoformans
Excerpt: as §7, §3, §4, §5

## CC[C@H](C)[C@@H]([C@@H](CC(=O)N1CCC[C@H]1[C@H](OC)[C@@H](C)C(=O)N[C@@H](Cc1ccccc1)c1nccs1)OC)N(C)C(=O)[C@@H](NC(=O)[C@H](C(C)C)N(C)C)C(C)C [1a, dolastatin 10]
[1]
  MIC: >50 µg/mL
[2]
  MIC: >50 µg/mL
[3]; doses up to 200 μg/m^2
  toxicity in patients with advanced solid tumors: minimal toxicity
[3]; doses up to 455 μg/m^2
  toxicity in human cancer clinical trials: minimal toxicity
[4]; ATCC 14116
  MFC: 6.25 µg/mL (≈ 7.96 µM)
  MIC: 3.12 µg/mL (≈ 3.97 µM)
[4]; ATCC 32045
  MFC: 1.56 µg/mL (≈ 1.99 µM)
  MIC: 0.78 µg/mL (≈ 0.993 µM)
[4]; ATCC 66031
  MFC: 1.56 µg/mL (≈ 1.99 µM)
  MIC: 0.78 µg/mL (≈ 0.993 µM)
[4]; ATCC 90112
  MFC: 1.56 µg/mL (≈ 1.99 µM)
  MIC: 0.78 µg/mL (≈ 0.993 µM)
[5]
  stable in plasma: at least 24 h
[6]
  stable in plasma: at least 24 h
[7]
  MIC: >100 μg/disk
[8]
  MIC: >100 μg/disk
[9]
  MIC: >100 μg/disk
[10]
  MIC: 25-50 μg/disk
[11]
  MIC: >100 μg/disk
[12]; 50% human serum
  MFC: 1.56 µg/mL (≈ 1.99 µM)
  MIC: 0.78 µg/mL (≈ 0.993 µM)
[12]; RPMI pH 5
  MFC: >50 µg/mL
  MIC: >50 µg/mL
[12]; RPMI pH 6
  MFC: 25 µg/mL (≈ 31.8 µM)
  MIC: 6.25 µg/mL (≈ 7.96 µM)
[12]; RPMI pH 7
  MFC: 1.56 µg/mL (≈ 1.99 µM)
  MIC: 0.78 µg/mL (≈ 0.993 µM)
[12]; no serum
  MFC: 1.56 µg/mL (≈ 1.99 µM)
  MIC: 0.78 µg/mL (≈ 0.993 µM)
[13]
  stable in plasma: at least 24 h
[14]
  MIC: >50 µg/mL
[15]
  MIC: >50 µg/mL
[16]
  MFC: >50 µg/mL
  MIC: >50 µg/mL
[17]; ATCC 34143
  MIC: >50 µg/mL
[17]; ATCC 66033
  MIC: >50 µg/mL
[18]; ATCC 18803
  MIC: >50 µg/mL
[18]; ATCC 34142
  MIC: >50 µg/mL
[18]; ATCC 66036
  MIC: >50 µg/mL
[19]
  MIC: >50 µg/mL
[20]
  MFC: >25 µg/mL
  MIC: >50 µg/mL
[21]
  MIC: >50 µg/mL
[22]; ATCC 10666
  MIC: >50 µg/mL
[22]; ATCC 34140
  MIC: >50 µg/mL
[22]; ATCC 66030
  MIC: >50 µg/mL
[23]; strain 94-2011
  MFC: 1.56 µg/mL (≈ 1.99 µM)
  MIC: 0.78 µg/mL (≈ 0.993 µM)
[23]; strain 94-2406
  MFC: 0.0975 µg/mL (≈ 0.124 µM)
  MIC: 0.0487 µg/mL (≈ 0.062 µM)
[23]; strain 94-2483
  MFC: 0.39 µg/mL (≈ 0.497 µM)
  MIC: 0.195 µg/mL (≈ 0.248 µM)
[23]; strain 95-2792
  MFC: 3.12 µg/mL (≈ 3.97 µM)
  MIC: 0.78 µg/mL (≈ 0.993 µM)
[24]
  estimated elimination half-life: 5.6 h

## CCC(C)C(C(CC(=O)N1CCC[C@H]1C(OC)C(C)C(=O)NC(Cc1ccccc1)C(=O)OC)OC)N(C)C(=O)[C@@H](NC(=O)[C@H](C(C)C)N(C)C)C(C)C (stereo partly shown) [1d]
[25]
  fungicidal action, reductions in CFUs: most dramatic reductions in CFUs
[26]; 19 clinical isolates
  MFC50: 0.39 µg/mL (≈ 0.513 µM)
  MFC90: 0.78 µg/mL (≈ 1.03 µM)
  MIC50 (MIC at which 50% of the isolates were inhibited): 0.195 µg/mL
  MIC90 (MIC at which 90% of the isolates were inhibited): 0.39 µg/mL
  clinical isolate MFCs, range: 0.0975 to 6.24 µg/mL
  share of clinical isolates with MFC/MIC ratio equal to 4: 26%
  share of clinical isolates with MFC/MIC ratio less than or equal to 2: more than 68%
[26]; 19 clinical isolates (not fluconazole-resistant strains)
  resistant clinical isolates: No resistant clinical isolates were found
[26]; clinical isolates
  recovery: MFCs after the recommended incubation period compared with one week later: no evidence of recovery
[8]
  MIC: >100 μg/disk
[9]
  MIC: >100 μg/disk
[10]
  MIC: 3.12-6.25 μg/disk
[11]
  MIC: >100 μg/disk
[12]; acidified RPMI
  effect of lowered pH on anticryptococcal activity: least affected by lowered pH
